Activity calls are given as the source filed them.
What was measured:
[1] = P. falciparum 3D7-ScDHODH growth inhibitors, dose response, SYBR Green, dry powder samples (AID 1159570); assay type: functional, cell-based;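 further: parasite growth measured after 72 hours of compound exposure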
[2] = P. falciparum Dd2 growth inhibitors, dose response, SYBR Green, dry powder samples (AID 1159566); assay type: functional, cell-based;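 further: potency for growth inhibition with lower SYBR green DNA signal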
[3] = P. falciparum Dd2 growth inhibitors, dose response, SYBR Green, cherry-picked samples (AID 1159567); assay type: functional, cell-based
[4] = P. falciparum ATP4 D1247Y mutant growth inhibitors, dose response, NITD609-resistant line, SYBR Green, dry powder (AID 1159571); assay type: functional, cell-based;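 further: parasites synchronized at ring stage by sorbitol before testing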
P388/ADR = experiment: cells; assay type: functional; settings: Mus musculus
SN12K1 = experiment: cells; assay type: functional; settings: Homo sapiens
[5] = molecular target: T1, Polyadenylate-binding protein 1 (Homo sapiens, UniProt P11940); experiment: PABP1 MLLE–PAM2 binding inhibitor potency, dose response, biochemical, fluorescence polarization, FITC-PAM2 peptide (AID 602259); assay type: functional; settings: read-out: IC50_Mean
[6] = molecular target: T2, Carboxy-terminal domain RNA polymerase II polypeptide A small phosphatase 1 (Homo sapiens, UniProt Q9GZU7); experiment: inhibitors of CTDSP1, concentration-response testing, biochemical assay, absorbance-based, actives from ultra-high-throughput screening (AID 540297); assay type: functional
T2 sequence (Q9GZU7 whole entry): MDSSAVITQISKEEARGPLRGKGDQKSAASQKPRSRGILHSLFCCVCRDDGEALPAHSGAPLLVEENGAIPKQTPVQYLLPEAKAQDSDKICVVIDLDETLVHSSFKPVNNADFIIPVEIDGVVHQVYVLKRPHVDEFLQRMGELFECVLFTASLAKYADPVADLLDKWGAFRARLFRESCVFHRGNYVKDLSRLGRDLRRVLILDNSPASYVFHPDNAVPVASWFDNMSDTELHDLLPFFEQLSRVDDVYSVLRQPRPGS

[7] = molecular target: T1, Polyadenylate-binding protein 1; experiment: PABP1 MLLE–PAM2 interaction inhibitors, dose response, miRNA deadenylation inhibitor project, biochemical, fluorescence polarization, Cy5-PAM2 peptide, secondary (AID 602260); assay type: functional; settings: read-out: IC50_Mean
Cytochrome P450 2C9 = Cytochrome P450 2C9 (Homo sapiens, UniProt P11712)
Cytochrome P450 1A2 = molecular target: T3, Cytochrome P450 1A2 (Homo sapiens, UniProt P05177);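 further: PubChem cytochrome P450 panel assay, CYP1A2 panel member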
T3 sequence (P05177 whole entry): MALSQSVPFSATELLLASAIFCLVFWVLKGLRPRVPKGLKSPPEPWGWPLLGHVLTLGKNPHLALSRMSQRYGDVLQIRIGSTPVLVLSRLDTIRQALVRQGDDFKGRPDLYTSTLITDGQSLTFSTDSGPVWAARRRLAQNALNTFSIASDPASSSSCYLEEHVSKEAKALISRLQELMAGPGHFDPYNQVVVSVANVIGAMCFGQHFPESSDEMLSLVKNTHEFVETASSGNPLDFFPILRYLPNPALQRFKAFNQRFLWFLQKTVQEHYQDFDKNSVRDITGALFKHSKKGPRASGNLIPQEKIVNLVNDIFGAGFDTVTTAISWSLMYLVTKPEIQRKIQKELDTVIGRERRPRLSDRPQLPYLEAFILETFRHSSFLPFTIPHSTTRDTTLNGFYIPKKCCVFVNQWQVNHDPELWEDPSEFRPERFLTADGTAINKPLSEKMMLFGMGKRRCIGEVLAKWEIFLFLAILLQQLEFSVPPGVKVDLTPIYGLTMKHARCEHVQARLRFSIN

cells = assay type: functional
Fatty acid synthase [8] = molecular target: T4, Fatty acid synthase (Homo sapiens, UniProt P49327); experiment: FAS thioesterase domain inhibitors, dose response, biochemical, endpoint fluorescence intensity, uHTS hits (AID 624327); assay type: functional;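 further: fluorescence from hydrolysis of an O-methyl fluorescein acyl ester substrate by the enzyme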
Fatty acid synthase [9] = molecular target: T4, Fatty acid synthase; experiment: FAS thioesterase domain inhibitors, dose response, biochemical, kinetic fluorescence intensity (AID 624326); assay type: functional;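 further: rate of fluorescence rise from hydrolysis of a fluorogenic O-methyl fluorescein ester substrate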
[10] = molecular target: G-protein coupled receptor 55 (Homo sapiens, UniProt Q9Y2T6); experiment: GPR55 antagonists blocking LPI-driven arrestin recruitment, primary screen, imaging, U2OS, beta-arrestin-GFP, LPI agonist (AID 2013); assay type: functional;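 further: antagonist potency measured as reduced agonist-driven arrestin aggregation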
[11] = molecular target: T5, Sentrin-specific protease 8 (Homo sapiens, UniProt Q96LD8); assay type: functional
T5 sequence (Q96LD8 whole entry): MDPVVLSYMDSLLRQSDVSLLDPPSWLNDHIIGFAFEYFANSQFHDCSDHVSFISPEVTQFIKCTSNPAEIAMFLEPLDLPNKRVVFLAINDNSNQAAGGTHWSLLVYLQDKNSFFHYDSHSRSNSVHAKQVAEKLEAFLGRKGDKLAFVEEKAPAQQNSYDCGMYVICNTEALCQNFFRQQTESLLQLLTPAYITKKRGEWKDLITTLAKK

[12] = molecular target: T5, Sentrin-specific protease 8; assay type: functional; remark: listed apart in the source
Cytochrome P450 3A4 = Cytochrome P450 3A4 (Homo sapiens, UniProt P08684);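 further: CYP3A4 tested as one member of a cytochrome P450 panel screen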
Cytochrome P450 2C19 = Cytochrome P450 2C19 (Homo sapiens, UniProt P33261); experiment: Cytochrome panel assay with activity outcomes. Panel member name: p450-cyp2c19 Compounds with AC50 equal or less than 10 uM are considered active; assay type: functional
[13] = MC4R antagonists, dose response, counter-screen for LGR2 antagonist project, cell-based, plate reader, cherry pick (AID 743444); assay type: functional;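 further: transfected HEK 293 cells stimulated with alpha-MSH peptide; potency of inhibitors of the alpha-MSH evoked signal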
[14] = HEK293 cell cytotoxicity, dose response, cytotoxicity control, plate reader, cherry-picked samples (AID 743446); assay type: functional, cell-based
[15] = LGR2 antagonists, dose response, cell-based, HEK293, CRE-luciferase reporter, cherry pick, set 2 (AID 743343); assay type: functional;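 further: transfected cells were stimulated with diluted bursicon conditioned medium after compound addition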
[16] = A549 cell cytotoxicity, dose response, cytotoxicity control, plate reader, cherry-pick, antagonist series (AID 743412); assay type: functional, cell-based
[17] = inhibitors of HIV Env-driven cell fusion, dose response, cherry-pick (AID 652057); assay type: functional, cell-based
[18] = ZM109 Env clade C HIV-1 fusion inhibitors, dose response, HeLa effector, CEM target cells, luciferase, cherry-pick (AID 652058); assay type: functional, cell-based
[19] = inhibitors of clade B AD8 Env fusion, dose response, cell-based, cherry-pick (AID 652062); assay type: functional;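 further: luciferase signal from cell-cell fusion driven by HIV-1 clade B AD8 Env; potency is for inhibitors of fusion seen as a drop in luminescence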
[20] = molecular target: T6, Ubiquitin-conjugating enzyme E2 N (Homo sapiens, UniProt P61088); assay type: functional;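 further: Dose-response confirmation in a TR-FRET assay detecting UBC13-driven polyubiquitin chain formation, inhibition measured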
T6 sequence (P61088 whole entry): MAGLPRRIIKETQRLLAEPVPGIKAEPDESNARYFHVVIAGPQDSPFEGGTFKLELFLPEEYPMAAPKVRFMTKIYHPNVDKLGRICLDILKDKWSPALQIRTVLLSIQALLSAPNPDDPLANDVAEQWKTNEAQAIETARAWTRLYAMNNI

Cytochrome P450 2D6 = Cytochrome P450 2D6 (Homo sapiens, UniProt P10635);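 further: CYP2D6 member of a cytochrome P450 panel assay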
[21] = cytotoxicity in HEK-293T cells, dose response, cytotoxicity control for TCR NF-kB inhibitor project, luminescence, T-cell screen hits (AID 489026); assay type: functional, cell-based;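 further: cells exposed to compound about 14 hours before the viability readout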
[22] = C. albicans growth with fluconazole, confirmation, fluorescence, retest (AID 2467); assay type: functional, cell-based
[23] = NIH-3T3 fibroblast cytotoxicity, dose response, cytotoxicity control, cell-based, fluorescence, Alamar Blue, secondary assay (AID 2327); assay type: functional;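 further: NIH-3T3 mouse fibroblasts cultured with fluconazole at 8 µg/mL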

Chain of Cytochrome P450 2C9 (P11712 whole entry): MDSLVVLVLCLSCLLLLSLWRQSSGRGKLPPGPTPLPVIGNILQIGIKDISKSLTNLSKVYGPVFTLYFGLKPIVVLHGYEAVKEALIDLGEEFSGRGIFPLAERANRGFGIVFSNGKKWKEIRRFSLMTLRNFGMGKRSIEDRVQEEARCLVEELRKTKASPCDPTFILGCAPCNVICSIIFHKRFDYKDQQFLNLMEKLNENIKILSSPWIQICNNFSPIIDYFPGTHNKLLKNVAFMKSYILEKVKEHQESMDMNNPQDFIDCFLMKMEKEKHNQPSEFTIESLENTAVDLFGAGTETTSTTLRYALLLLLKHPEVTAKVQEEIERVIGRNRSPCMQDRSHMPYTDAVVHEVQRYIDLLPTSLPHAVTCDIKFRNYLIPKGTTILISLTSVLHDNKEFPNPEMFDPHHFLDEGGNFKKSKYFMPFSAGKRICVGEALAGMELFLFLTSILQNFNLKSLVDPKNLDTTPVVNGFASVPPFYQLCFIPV
T4 sequence (P49327 whole entry, the tested form may be a part): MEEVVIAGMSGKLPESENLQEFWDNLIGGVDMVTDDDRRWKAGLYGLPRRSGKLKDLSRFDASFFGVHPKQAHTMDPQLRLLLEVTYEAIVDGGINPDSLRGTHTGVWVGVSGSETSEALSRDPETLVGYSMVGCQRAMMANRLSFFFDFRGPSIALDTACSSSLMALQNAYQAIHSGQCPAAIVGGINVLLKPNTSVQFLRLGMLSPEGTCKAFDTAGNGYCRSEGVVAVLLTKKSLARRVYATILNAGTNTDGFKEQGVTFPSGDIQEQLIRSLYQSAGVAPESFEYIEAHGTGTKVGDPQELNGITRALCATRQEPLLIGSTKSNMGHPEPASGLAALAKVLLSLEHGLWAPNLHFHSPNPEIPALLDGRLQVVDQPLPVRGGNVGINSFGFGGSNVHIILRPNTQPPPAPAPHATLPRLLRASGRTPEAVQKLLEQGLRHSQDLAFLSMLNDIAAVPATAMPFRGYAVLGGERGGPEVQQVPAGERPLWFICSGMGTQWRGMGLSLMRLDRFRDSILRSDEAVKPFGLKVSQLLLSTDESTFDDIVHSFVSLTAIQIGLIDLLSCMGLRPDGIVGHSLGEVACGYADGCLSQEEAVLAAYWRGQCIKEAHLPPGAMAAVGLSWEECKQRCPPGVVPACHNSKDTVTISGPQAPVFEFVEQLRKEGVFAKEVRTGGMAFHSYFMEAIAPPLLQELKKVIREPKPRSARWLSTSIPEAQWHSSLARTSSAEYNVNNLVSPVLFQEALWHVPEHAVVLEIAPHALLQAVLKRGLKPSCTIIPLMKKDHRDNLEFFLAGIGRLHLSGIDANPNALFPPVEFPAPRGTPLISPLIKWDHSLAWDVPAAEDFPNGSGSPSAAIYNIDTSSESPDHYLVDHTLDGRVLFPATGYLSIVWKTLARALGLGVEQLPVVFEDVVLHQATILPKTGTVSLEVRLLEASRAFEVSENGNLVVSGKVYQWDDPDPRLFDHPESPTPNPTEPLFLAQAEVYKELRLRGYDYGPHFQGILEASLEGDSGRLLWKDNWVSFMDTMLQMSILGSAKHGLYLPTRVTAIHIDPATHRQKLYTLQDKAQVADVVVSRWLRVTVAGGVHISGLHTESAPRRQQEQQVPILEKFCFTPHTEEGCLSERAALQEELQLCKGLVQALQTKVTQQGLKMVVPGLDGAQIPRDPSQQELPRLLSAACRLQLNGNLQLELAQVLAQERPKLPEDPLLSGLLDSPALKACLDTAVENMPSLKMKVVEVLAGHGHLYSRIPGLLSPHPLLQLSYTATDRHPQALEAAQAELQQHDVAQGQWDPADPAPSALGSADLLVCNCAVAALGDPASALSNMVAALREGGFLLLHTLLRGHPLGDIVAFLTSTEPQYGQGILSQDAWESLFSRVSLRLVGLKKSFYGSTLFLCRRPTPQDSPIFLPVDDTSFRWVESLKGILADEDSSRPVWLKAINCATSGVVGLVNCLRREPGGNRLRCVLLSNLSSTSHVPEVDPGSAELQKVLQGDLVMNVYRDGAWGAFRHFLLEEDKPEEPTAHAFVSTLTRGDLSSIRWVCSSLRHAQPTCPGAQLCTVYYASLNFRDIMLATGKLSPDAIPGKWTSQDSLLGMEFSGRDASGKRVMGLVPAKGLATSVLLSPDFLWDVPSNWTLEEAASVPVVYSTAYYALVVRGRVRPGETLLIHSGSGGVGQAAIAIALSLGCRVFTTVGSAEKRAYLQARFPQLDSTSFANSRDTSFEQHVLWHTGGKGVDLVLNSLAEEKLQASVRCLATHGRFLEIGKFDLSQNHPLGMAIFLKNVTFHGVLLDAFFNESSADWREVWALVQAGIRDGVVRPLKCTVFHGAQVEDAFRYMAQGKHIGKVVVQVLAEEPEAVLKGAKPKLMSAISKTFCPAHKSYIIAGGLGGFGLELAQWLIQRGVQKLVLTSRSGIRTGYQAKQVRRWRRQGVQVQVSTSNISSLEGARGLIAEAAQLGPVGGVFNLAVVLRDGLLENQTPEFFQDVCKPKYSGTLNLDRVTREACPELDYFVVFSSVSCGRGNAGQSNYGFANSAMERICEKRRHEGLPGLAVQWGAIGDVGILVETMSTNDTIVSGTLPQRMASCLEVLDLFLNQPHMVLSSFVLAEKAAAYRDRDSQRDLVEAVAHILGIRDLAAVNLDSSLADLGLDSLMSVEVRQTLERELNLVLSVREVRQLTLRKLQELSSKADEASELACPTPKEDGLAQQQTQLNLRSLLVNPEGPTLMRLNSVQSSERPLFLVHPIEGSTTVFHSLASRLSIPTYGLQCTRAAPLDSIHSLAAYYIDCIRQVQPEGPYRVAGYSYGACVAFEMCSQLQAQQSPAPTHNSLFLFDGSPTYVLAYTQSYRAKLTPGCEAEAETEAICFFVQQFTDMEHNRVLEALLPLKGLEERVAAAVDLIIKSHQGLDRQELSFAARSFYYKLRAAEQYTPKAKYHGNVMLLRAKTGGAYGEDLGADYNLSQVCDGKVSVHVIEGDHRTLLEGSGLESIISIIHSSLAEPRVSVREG
Chain of G-protein coupled receptor 55 (Q9Y2T6 whole entry): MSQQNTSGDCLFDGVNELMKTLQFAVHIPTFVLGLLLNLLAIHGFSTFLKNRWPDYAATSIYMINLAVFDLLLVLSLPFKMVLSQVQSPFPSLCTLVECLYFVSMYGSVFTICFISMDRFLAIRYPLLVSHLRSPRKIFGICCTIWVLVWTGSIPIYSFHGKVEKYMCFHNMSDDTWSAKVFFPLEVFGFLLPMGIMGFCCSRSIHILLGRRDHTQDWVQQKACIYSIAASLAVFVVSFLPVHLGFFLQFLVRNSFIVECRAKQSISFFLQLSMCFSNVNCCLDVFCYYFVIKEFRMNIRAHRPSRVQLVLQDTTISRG
T1 sequence (P11940 whole entry, the tested form may be a part): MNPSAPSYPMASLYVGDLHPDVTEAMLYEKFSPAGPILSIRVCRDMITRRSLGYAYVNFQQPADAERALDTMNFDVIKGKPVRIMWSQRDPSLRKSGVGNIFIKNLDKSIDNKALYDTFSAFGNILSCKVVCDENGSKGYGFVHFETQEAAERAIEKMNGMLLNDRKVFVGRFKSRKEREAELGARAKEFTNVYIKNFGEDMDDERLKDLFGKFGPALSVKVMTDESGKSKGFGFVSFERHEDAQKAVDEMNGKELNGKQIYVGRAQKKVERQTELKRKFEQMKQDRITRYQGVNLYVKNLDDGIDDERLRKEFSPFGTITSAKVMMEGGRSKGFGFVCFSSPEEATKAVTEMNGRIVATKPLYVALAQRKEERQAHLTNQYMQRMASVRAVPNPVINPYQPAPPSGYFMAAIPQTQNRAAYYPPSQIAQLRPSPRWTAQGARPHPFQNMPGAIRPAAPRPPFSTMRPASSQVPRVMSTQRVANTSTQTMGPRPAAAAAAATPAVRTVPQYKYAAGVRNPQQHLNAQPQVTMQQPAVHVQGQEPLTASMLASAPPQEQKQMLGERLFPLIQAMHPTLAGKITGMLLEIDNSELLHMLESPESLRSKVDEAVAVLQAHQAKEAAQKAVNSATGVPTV
Chain of Cytochrome P450 3A4 (P08684 whole entry): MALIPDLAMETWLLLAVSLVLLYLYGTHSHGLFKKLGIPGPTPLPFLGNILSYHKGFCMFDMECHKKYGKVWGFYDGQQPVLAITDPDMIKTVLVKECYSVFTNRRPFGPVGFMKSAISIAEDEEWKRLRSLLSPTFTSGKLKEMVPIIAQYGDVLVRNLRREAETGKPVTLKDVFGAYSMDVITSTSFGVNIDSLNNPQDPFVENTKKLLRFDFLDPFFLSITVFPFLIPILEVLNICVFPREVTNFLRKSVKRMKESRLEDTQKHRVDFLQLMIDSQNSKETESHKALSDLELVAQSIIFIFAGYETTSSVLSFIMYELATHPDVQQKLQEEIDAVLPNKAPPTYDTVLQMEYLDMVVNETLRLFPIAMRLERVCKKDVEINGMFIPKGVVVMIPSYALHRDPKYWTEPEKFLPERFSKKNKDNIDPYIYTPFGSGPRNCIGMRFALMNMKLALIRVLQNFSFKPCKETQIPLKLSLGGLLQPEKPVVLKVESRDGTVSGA
Chain of Cytochrome P450 2C19 (P33261 whole entry): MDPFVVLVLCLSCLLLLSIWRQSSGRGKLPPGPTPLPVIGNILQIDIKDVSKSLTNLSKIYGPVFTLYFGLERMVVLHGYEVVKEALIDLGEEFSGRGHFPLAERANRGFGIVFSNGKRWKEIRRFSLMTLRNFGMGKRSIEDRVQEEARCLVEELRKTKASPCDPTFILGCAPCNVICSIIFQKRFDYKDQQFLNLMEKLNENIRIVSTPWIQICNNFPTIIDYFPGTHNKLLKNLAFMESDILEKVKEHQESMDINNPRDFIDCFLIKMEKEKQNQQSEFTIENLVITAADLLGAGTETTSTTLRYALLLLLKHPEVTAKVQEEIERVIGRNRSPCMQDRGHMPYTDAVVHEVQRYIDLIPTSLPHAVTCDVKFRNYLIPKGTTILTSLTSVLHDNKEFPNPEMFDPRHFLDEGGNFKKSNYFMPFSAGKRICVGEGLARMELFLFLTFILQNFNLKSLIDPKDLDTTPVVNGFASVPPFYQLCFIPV

CCCNC(=O)c1cc2c(c(-c3cccc(-c4cc5ccccc5o4)c3)n1)[C@H](CCO)N(C(=O)NC(C)C)C2
AC50 [1]: 2.97 µM (active)
AC50 [2]: 1.75 µM (active)
AC50 [3]: 1.87 µM (active)
AC50 [4]: 2.39 µM (active)

C=C1C(=O)O[C@@H]2OC3(C)CCC4C(C)CCC1C42OO3 (stereo partly drawn)
GI50 (P388/ADR): 0.294 µM (active)
GI50 (SN12K1): 3.66 µM (inactive)

C=CCN1C(=O)/C(=C2/Sc3ccccc3N2CCCS(=O)(=O)O)SC1=S.c1ccncc1
IC50 [5]: > 66 µM (inactive)
IC50 [6]: 5.11 µM (active)
IC50 [7]: > 66 µM (inactive)

Nc1cc(=O)nc(SCC(=O)Nc2cccc3ccccc23)n1CCc1ccccc1
AC50 (Cytochrome P450 2C9): inconclusive
AC50 (Cytochrome P450 1A2): 17.8 µM (inconclusive)

CCOc1ccccc1NC(=O)Cn1cnc2c(nnn2-c2cccc(OC)c2)c1=O
IC50 [6]: 10.1 µM (active)

Cc1ccc2[nH]c(CCc3nc4cc(C)ccc4[nH]3)nc2c1
IC50 (cells): 35.3 µM (active)

Cc1ccc([N+](=O)[O-])cc1NC(=O)CCCOc1ccccc1
IC50 (Fatty acid synthase [8]): 10.1 µM (active)
IC50 (Fatty acid synthase [9]): 27.3 µM (inactive)

CCOC(=O)c1c(N)sc(C(O)(C(F)(F)F)C(F)(F)F)c1-c1ccc(F)cc1
IC50 [10]: 4.92 µM (active)

COc1cc(=O)n(C)c2c(O)cccc12
IC50 [11]: 11.5 µM (active)
IC50 [12]: > 100 µM (inactive)

COc1ccc(/C=C2\SC(=S)N(CCC(=O)Nc3cccc(C(=O)O)c3)C2=O)cc1
IC50 [6]: 6.38 µM (active)

CC(C)(C)C1=CC(O)(c2ccccc2)C=C(C(C)(C)C)C1=O
IC50 [10]: 18.7 µM (inactive)

O=C(COc1ccccc1[N+](=O)[O-])Nc1cccc(S(=O)(=O)NC2=NCCCCC2)c1
IC50 [6]: 9 µM (active)

CCCC(=O)NNC(=O)CCC(=O)NCc1ccccc1
AC50 (Cytochrome P450 2C9): inconclusive
AC50 (Cytochrome P450 3A4): 0.0562 µM (inconclusive)
AC50 (Cytochrome P450 2C19; read-out: AC50): 39.8 µM (inconclusive)

Cc1ccc(Nc2nc3ccccc3s2)c(C)c1
AC50 [13]: 14.3 µM (active)
AC50 [14]: > 52 µM (inactive)
AC50 [15]: 16.1 µM (active)
AC50 [16]: 37.8 µM (active)

C[C@H]1CN([C@@H](C)CO)C(=O)Cc2cc(NC(=O)C3CCCCC3)ccc2O[C@H]1CN(C)S(=O)(=O)c1ccc(Cl)cc1
AC50 [17]: 8.97 µM (active)
AC50 [18]: 6.75 µM (active)
AC50 [19]: 22.6 µM (active)

Cc1nc2scc(-c3ccc(Cl)cc3)c2c(=O)o1
IC50 (Fatty acid synthase [8]): 1.32 µM (active)
IC50 (Fatty acid synthase [9]): 2.91 µM (active)

Cc1ccc(NCCC(=O)c2cccs2)cc1Cl
IC50 (cells): 28.8 µM (active)

O=C(c1cccc(S(=O)(=O)N2CCCC2)c1)c1cccc(S(=O)(=O)N2CCCC2)c1
IC50 (Fatty acid synthase [8]): 12.1 µM (active)
IC50 (Fatty acid synthase [9]): 6.54 µM (active)

COC(=O)C1=C(C)N(Cc2ccccc2)C(NCc2ccc(OC)cc2)=N[C@H]1c1cccc(F)c1
IC50 [10]: 1.46 µM (active)
IC50 [20]: > 20 µM (inactive)

COC/C=C/C1=CC2=CC(=O)C(C)(OC(=O)c3cnc4ccccc4n3)C(=O)C2=CN1CCOC (stereo not drawn)
IC50 [11]: 11.5 µM (active)
IC50 [12]: 13.1 µM (active)

O=[N+]([O-])c1ccc(CN2CC(N3CCC(Cc4ccccc4)CC3)CS2(=O)=O)cc1 (stereo not drawn)
IC50 (Fatty acid synthase [8]): 9.92 µM (active)
IC50 (Fatty acid synthase [9]): 6.24 µM (active)

O=S(=O)(Nc1ccc2c(c1)OCCO2)c1cccc2cccnc12
AC50 (Cytochrome P450 2C9): inconclusive
AC50 (Cytochrome P450 1A2): 5.01 µM (inconclusive)
AC50 (Cytochrome P450 2D6): 39.8 µM (inconclusive)

COc1cccc(C2CC(=O)Nc3cc4c(cc32)CCC4)c1 (stereo not drawn)
IC50 [21]: > 80 µM (inactive)

CN(C)CCNCCN
AC50 (Cytochrome P450 2C9): inconclusive
AC50 (Cytochrome P450 2C19): inconclusive

CCOc1ccc(N2C(=O)C3C4C=CC(CC4)C3C2=O)c([N+](=O)[O-])c1 (stereo not drawn)
AC50 (Cytochrome P450 2C9): inconclusive
AC50 (Cytochrome P450 1A2): 25.1 µM (inconclusive)
AC50 (Cytochrome P450 3A4): 20 µM (inconclusive)

CCn1c(=O)c(C(=O)Nc2ncccc2C)c(O)c2ccccc21
IC50 (cells): 45.2 µM (active)
EC50 [22]: 0.119 µM (active)
EC50 [23]: > 150 µM (inconclusive)

COc1ccc(NC(=O)Nc2ccc3c(c2)C(=O)N([C@@H](C)CO)C[C@H](C)[C@H](CN(C)S(=O)(=O)c2ccc(Cl)cc2)O3)cc1
AC50 [17]: 5.71 µM (active)
AC50 [18]: 4.73 µM (active)
AC50 [19]: 5.38 µM (active)

Cc1ccccc1S(=O)(=O)N(C)C[C@@H]1OCc2ccccc2-c2c(n(C)c3ccccc23)C(=O)N([C@@H](C)CO)C[C@@H]1C
AC50 [1]: 1.02 µM (active)
AC50 [2]: 0.659 µM (active)
AC50 [3]: 1.63 µM (active)
AC50 [4]: 0.812 µM (active)

COc1ccc(C(C)=O)cc1COC(=O)c1ccc2ccccc2n1
IC50 (cells): 10.4 µM (active)

COc1ccc(N2C(=O)Cc3ccccc3C2=O)cc1
IC50 [11]: 5.08 µM (active)
IC50 [12]: > 100 µM (inactive)

COc1ccc(NC(=O)NNc2cc(N3CCOCC3)nc(N3CCOCC3)n2)cc1
IC50 [11]: 9.34 µM (active)
IC50 [12]: 7.36 µM (active)

CC(=O)c1ccc(N(C(=O)c2ccco2)C(C(=O)NC2CCCC2)c2ccc(N3CCOCC3)cc2)cc1 (stereo not drawn)
IC50 (Fatty acid synthase [8]): 15.5 µM (active)
IC50 (Fatty acid synthase [9]): 12.5 µM (active)

CC(C)(C)OC(=O)N1Cc2ccccc2C[C@H]1C(=O)O
IC50 [11]: 12.8 µM (active)
IC50 [12]: > 100 µM (inactive)

CCc1ccc(NS(=O)(=O)c2cc3c(cc2C)n(C)c(=O)c(=O)n3C)cc1
IC50 [10]: 3.39 µM (active)
IC50 (Fatty acid synthase [8]): 2.42 µM (active)
IC50 (Fatty acid synthase [9]): 2.83 µM (active)

From ChEMBL document CHEMBL1201862, “PubChem BioAssay data set” (2004)
